# Structures can show the parent of a compound that is named as a salt. Where two headings read alike, the source gives them in different places.
# What was measured:
# MMP-1 = target: T1, MMP-1 (Homo sapiens, UniProt P03956); assay: MMP-1 inhibition (thiopeptide or fluorescent peptide substrate); assay type: biochemical; conditions: read-out: MMP-1 IC50
# T1 sequence (P03956 100-469): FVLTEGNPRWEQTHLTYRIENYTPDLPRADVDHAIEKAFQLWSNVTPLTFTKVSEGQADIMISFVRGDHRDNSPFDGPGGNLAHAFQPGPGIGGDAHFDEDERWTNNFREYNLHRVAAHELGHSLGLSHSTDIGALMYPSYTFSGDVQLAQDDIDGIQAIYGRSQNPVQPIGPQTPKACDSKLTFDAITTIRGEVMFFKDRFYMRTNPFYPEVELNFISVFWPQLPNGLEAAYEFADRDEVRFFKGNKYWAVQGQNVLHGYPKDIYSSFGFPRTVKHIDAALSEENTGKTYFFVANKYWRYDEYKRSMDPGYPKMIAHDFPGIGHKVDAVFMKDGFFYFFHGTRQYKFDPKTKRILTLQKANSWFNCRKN
# MMP-9 = MMP-9 (Homo sapiens, UniProt P14780); assay: MMP-9 inhibition (thiopeptide or fluorescent peptide substrate); assay type: biochemical; conditions: read-out: MMP-9 IC50
# Sequence of MMP-9 (P14780 94-707): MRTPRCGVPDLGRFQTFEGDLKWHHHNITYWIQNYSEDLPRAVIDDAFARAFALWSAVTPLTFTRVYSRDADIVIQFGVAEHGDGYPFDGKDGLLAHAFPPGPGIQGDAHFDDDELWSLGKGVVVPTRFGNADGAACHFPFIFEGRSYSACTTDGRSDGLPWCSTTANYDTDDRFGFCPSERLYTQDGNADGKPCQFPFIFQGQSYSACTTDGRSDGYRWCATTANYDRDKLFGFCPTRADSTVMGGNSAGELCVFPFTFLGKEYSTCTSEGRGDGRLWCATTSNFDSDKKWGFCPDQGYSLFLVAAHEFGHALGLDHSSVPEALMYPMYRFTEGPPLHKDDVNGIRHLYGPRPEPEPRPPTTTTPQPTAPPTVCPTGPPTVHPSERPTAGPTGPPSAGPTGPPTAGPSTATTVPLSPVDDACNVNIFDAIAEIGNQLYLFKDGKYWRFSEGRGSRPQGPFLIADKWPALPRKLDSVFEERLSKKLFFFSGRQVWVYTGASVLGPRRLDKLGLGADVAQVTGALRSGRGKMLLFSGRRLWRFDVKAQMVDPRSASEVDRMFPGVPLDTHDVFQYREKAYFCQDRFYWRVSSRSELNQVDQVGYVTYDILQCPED
# MMP-13 = MMP-13 (Homo sapiens, UniProt P45452); assay: MMP-13 inhibition (thiopeptide or fluorescent peptide substrate); assay type: biochemical; conditions: read-out: MMP-13 IC50
# [1] = target: TNF-α converting enzyme (TACE) (Homo sapiens, UniProt P78536); assay: TACE inhibition (fluorescent peptidyl substrate); assay type: biochemical
# Sequence of TNF-α converting enzyme (TACE) (P78536 215-824, species assumed): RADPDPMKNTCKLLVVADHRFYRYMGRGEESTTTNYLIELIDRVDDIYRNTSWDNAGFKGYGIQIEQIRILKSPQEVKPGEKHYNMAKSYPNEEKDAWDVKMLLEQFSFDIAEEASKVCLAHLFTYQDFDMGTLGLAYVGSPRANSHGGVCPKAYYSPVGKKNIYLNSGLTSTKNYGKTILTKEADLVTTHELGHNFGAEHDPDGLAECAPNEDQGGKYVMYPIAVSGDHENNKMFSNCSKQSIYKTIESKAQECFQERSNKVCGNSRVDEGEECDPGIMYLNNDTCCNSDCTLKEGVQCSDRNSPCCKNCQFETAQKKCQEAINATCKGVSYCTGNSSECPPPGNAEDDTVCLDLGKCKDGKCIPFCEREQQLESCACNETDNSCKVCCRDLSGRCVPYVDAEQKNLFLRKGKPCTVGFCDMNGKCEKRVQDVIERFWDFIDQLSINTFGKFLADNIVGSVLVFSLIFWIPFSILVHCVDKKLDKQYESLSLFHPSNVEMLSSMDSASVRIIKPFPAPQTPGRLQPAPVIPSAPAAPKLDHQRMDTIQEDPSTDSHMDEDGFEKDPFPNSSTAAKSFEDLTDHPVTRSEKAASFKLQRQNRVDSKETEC
IC50 (MMP-1) [µM],IC50 (MMP-13) [µM],IC50 ([1]; read-out: TACE IC50) [µM],melting point,SMILES,other results
0.111,0.0038,0.098,74 to 78 °C,"CC#CCOc1ccc(S(=O)(=O)N(Cc2cccnc2)C(CSCc2ccccc2)C(=O)NO)cc1 (centres unmarked) [Example 157, 3-(Benzylthio)-2-[[[4-(2-butynyloxy)phenyl]sulfonyl]pyridin-3-ylmethylamino]-N-hydroxypropanamide]",IC50 (MMP-9): 0.032 µM
0.017,0.0076,0.101,110 to 115 °C,CC#CCOc1ccc(S(=O)(=O)N(C)C(C(=O)NO)C(C)(C)SCCN2CCN(C)CC2)cc1 (centres unmarked) [Example 141],IC50 (MMP-9): 0.0083 µM
,0.031,0.109,48 to 50 °C,"CC#CCOc1ccc(S(=O)(=O)N(C)C(C(=O)NO)c2ccc(OCCCNC(=O)OCc3ccccc3)cc2)cc1 (centres unmarked) [Example 196, Benzyl 3-{4-[1-[{[4-(2-Butynyloxy)phenyl]sulfonyl}(methyl)amino]-2-(hydroxyamino)-2-oxoethyl]phenoxy}propylcarbamate]",
0.798,0.036,0.062,170 to 172 °C,"CC#CCOc1ccc(S(=O)(=O)N(C)C(C(=O)NO)c2ccc(Cl)cc2)cc1 (centres unmarked) [Example 212, 2-[{[4-(2-Butynyloxy)phenyl]sulfonyl}(methyl)amino]-2-(4-chlorophenyl)-N-hydroxyacetamide]",
,,,195 to 198 °C,"CC#CCOc1ccc(S(=O)(=O)N2CCSC3(CCN(C)CC3)C2C(=O)NO)cc1 (centres unmarked) [Example 242, 9-Methyl-4-{[4-(2-butynyloxy)phenyl]sulfonyl}-N-hydroxy-1-thia-4,9-diazaspiro[5.5]undecane-5-carboxamide]","IC50 ([1]; Table 9, read-out: TACE IC50): 0.869 µM"
> 10,0.147,0.033,80 to 86 °C,"CC#CCOc1ccc(S(=O)(=O)NC(C(=O)NO)c2ccc(OCCN3CCOCC3)cc2)cc1 (centres unmarked) [Example 206, 2-({[4-(2-Butynyloxy)phenyl]sulfonyl}amino)-N-hydroxy-2-{4-[2-(4-morpholinyl)ethoxy]phenyl}acetamide]",
,,,67 to 70 °C,"CC#CCOc1ccc(S(=O)(=O)N(C)C(C(=O)NO)C(C)(C)SCCn2ccnc2)cc1 (centres unmarked) (as salt: hydrochloride) [Example 144, 2-({[4-(2-Butynyloxy)phenyl]sulfonyl)(methyl)amino]-N-hydroxy-3 Methyl-3-{[2-(1H-imidazol-1-yl)ethyl]sulfanyl}butanamide]",
,,,50 °C (dec.),"CC#CCOc1ccc(S(=O)(=O)N(C)C(C(=O)NO)C(C)(C)SCCN2CCOCC2)cc1 (centres unmarked) (as salt: hydrochloride) [Example 140, 2-({[4-(2-Butynyloxy)phenyl]sulfonyl)(methyl)amino]-N-hydroxy-3 Methyl-3-[(2(4-morpholinylethyl)sulfanyl]-butanamide Hydrochloride]",
,,,75 °C (dec.),"CC#CCOc1ccc(S(=O)(=O)NC(C(=O)NO)C(C)(C)SCC(=O)O)cc1 (centres unmarked) (as salt: sodium) [Example 166, tert-Butyl {[2-({[4-2-Butynyloxy)phenyl]sulfonyl}amino)-3-(hydroxyamino)-1,1-dimethyl-3-oxopropyl]sulfanyl Acetic Acid, Sodium Salt]",
,,,150 to 154 °C,CC#CCOc1ccc(S(=O)(=O)N2CCSCC2C(=O)NO)cc1 (centres unmarked) [Example 239],"IC50 (MMP-9; Table 9): 0.021 µM; IC50 (MMP-13; Table 9): 0.012 µM; IC50 ([1]; Table 9, read-out: TACE IC50): 0.0029 µM"
0.453,0.009,0.21,144 to 145.5 °C,"CC#CCOc1ccc(S(=O)(=O)N(C)C(CCCSc2ccc(Cl)cc2)C(=O)NO)cc1 (centres unmarked) [Example 213, 2-[{[4-(2-Butynyloxy)phenyl]sulfonyl}(methyl)amino]-5[(4-chlorophenyl)sulfanyl]-N-hydroxypentanamide]",
0.218,0.053,0.204,,"CC#CCOc1ccc(S(=O)(=O)N(Cc2cccnc2)[C@@H](C(=O)NO)C2CCCCC2)cc1 [Example 116, 2-[(4-but-2-ynyloxy-Benzenesulfonyl)-pyridin-3-ylmethyl-amino]-2-cyclohexyl-N-hydroxy-acetamide]",IC50 (MMP-9): 0.336 µM
2.37,0.212,0.376,,"CC#CCOc1ccc(S(=O)(=O)N(C)[C@@H](C(=O)NO)C2CCC(N(CC)CC)CC2)cc1 (stereo partly drawn) [Example 128, ((2R)-{[4-(2-Butynyloxy)phenyl]sulfonyl}(methyl)amino)[(4-diethylamino)cyclohexyl]-N-hydroxyethamide]",IC50 (MMP-9): 0.184 µM

# Second part, the molecule before the results:
SMILES,IC50 (MMP-1) [µM],IC50 (MMP-13) [µM],IC50 ([1]; read-out: TACE IC50) [µM],melting point,other results
"CC#CCOc1ccc(S(=O)(=O)N2CCSCCC2C(=O)NO)cc1 (centres unmarked) [Example 294, 4-{[4-(2-Butynyloxy)phenyl]sulfonyl}-N-hydroxy-1,4-thiazepine-5-carboxamide]",,,,95 to 98 °C,
CC#CCOc1ccc(S(=O)(=O)N(C)C(C(=O)NO)c2ccc(OCCCNC(C)=O)cc2)cc1 (centres unmarked) [Example 194],0.592,0.015,0.061,88 °C (dec.),
"CC#CCOc1ccc(S(=O)(=O)N(C)C(C(=O)NO)C(C)(C)SCCN2CCCC2)cc1 (centres unmarked) [Example 143, 2-({[4-(2-Butynyloxy)phenyl]sulfonyl)(methyl)amino]-N-hydroxy-3 Methyl-3-{[2(1-pyrrolidinyl)ethyl]sulfanyl}butanamide]",,,,55 to 57 °C,
"CC#CCOc1ccc(S(=O)(=O)N2CCOCC2C(=O)NO)cc1 (centres unmarked) [Example 240, 4-([4-(2-Butynyloxy)phenyl]sulfonyl}-N-hydroxy-3-morpholinecarboxamide]",,,,68 to 72 °C,IC50 (MMP-9; Table 9): 0.17 µM; IC50 (MMP-13; Table 9): 0.026 µM; IC50 ([1]; TACE IC50): 0.0045 µM
"CC#CCOc1ccc(S(=O)(=O)N(C)C(C(=O)NO)c2ccc(OCCCNC(=O)Nc3ccccc3)cc2)cc1 (centres unmarked) [Example 198, 2-(4-{3-[(Anilinocarbonyl)amino]propoxy}phenyl)-2-[{[4-(2-butynyloxy)phenyl]sulfonyl}(methyl)amino]-N-hydroxyacetamide]",0.834,0.011,0.062,135 °C (dec.),
"CC#CCOc1ccc(S(=O)(=O)NC(C(=O)NO)c2ccc(OCCN3CCCC3)cc2)cc1 (centres unmarked) (as salt: hydrochloride) [Example 205, 2-({[4-(2-Butynyloxy)phenyl]sulfonyl}amino)-N-hydroxy-2-{4-[2-(1-pyrrolidinyl)ethoxy]phenyl}acetamide]",,,,70 °C,
CC#CCOc1ccc(S(=O)(=O)N2CCSC3(CCCC3)C2C(=O)NO)cc1 (centres unmarked) [Example 236],,,,206 to 208 °C,"IC50 (MMP-1; Table 9): 0.024 µM; IC50 (MMP-13; Table 9): 0.011 µM; IC50 ([1]; Table 9, read-out: TACE IC50): 0.043 µM"
"CC#CCOc1ccc(S(=O)(=O)NC(C(=O)NO)c2ccc(OCCN3CCN(C(=O)OC(C)(C)C)CC3)cc2)cc1 (centres unmarked) [Example 202, tert-Butyl 4-(2-{4-[1-({[4-(2-Butynyloxy)phenyl]sulfonyl}amino)-2-(hydroxyamino)-2-oxoethyl)phenoxy]ethyl)-1-piperazinecarboxylate]",> 10,0.345,0.113,92 to 95 °C,
"CC#CCOc1ccc(S(=O)(=O)N(C)C(C(=O)NO)c2ccc(OCCCNC(=O)OCCCC)cc2)cc1 (centres unmarked) [Example 195, Butyl 3-{4-[1-[{[4-(2-Butynyloxy)phenyl]sulfonyl}(methyl)amino]-2-(hydroxyamino)-2-oxoethyl]phenoxy}propylcarbamate]",> 1,0.028,0.122,50 to 55 °C,
"CC#CCOc1ccc(S(=O)(=O)N(C)C(C(=O)NO)C(C)(C)SCC(C)N(CC)CC)cc1 (centres unmarked) [Example 148, 2-({[4-(2-Butynyloxy)phenyl]sulfonyl)(methyl)amino]-N-hydroxy-3 Methyl-3-{[2-(diethylamino)propyl]sulfanyl}butanamide]",,,,65 to 68 °C,
"CC#CCOc1ccc(S(=O)(=O)N(C)C(C(=O)NO)c2ccc(OCCCNS(C)(=O)=O)cc2)cc1 (centres unmarked) [Example 197, 2-[{[4-(2-Butynyloxy)phenyl]sulfonyl}(methyl)amino]-N-hydroxy-2-(4-{3-[(methylsulfonyl)amino]propoxy}phenyl)acetamide]",0.569,0.024,0.025,65 to 70 °C,
"CC#CCOc1ccc(S(=O)(=O)N2CCSC3(CCN(Cc4ccccc4)CC3)C2C(=O)NO)cc1 (centres unmarked) (as salt: hydrochloride) [Example 241, 9-Benzyl-4-{[4-(2-butynyloxy)phenyl]sulfonyl}-N-hydroxy-1-thia-4,9-diazaspiro[5.5]undecane-5-carboxamide]",,,,151 to 153 °C,
"CC#CCOc1ccc(S(=O)(=O)N2CCS(=O)(=O)C(C)(C)[C@@H]2C(=O)NO)cc1 [Example 257, (3S)-4-{[4-(2-Butynyloxy)phenyl]sulfonyl}-N-hydroxy-2,2-dimethyl-3-thiomorpholine Carboxamide 1,1-Dioxide]",,,,,"IC50 (MMP-1; Table 9): 0.024 µM; IC50 (MMP-9; Table 9): 0.064 µM; IC50 (MMP-13; Table 9): 0.023 µM; IC50 ([1]; Table 9, read-out: TACE IC50): 0.024 µM"
"CC#CCOc1ccc(S(=O)(=O)N(C)C(C(=O)NO)c2ccc(OCCCNC(=O)OCC)cc2)cc1 (centres unmarked) [Example 193, Ethyl 3-{4-[1-[{[4-(2-Butynyloxy)phenyl]sulfonyl}(methyl)amino]-2-(hydroxyamino)-2-oxoethyl]phenoxy}propylcarbamate]",~1,0.0293,0.061,60 to 62 °C,
